Measured values: US20080306243A1, “Hla-Binding Peptide, and Dna Fragment and Recombinant Vector Coding for Said Hla-Binding Peptide” (NEC CORPORATION, priority 2005, published 2008)
Where two headings read alike, the source gives them in different places. Ends that are not written are not given here.

Assays:
HLA-A2402 molecule = HLA-A2402 molecule (Homo sapiens, UniProt P04439, D101N/D140Y/D185E/E176V/E190D/F33S/G103R/G107R/I119L/I121M/I306V/K335N/L105A/L180Q/L300P/N151K/N90K/Q86E/Q94H/R106L/R138H/R89G/T104I/T345S/V100E/W191G/Y123F); experiment: Experiment of binding peptide to HLA-A2402 molecule (C1R-A24 cells, flow cytometry)
Protocol: (§1) The ability of a peptide to bind to an HLA-A2402 molecule, which is a product of the HLA-A*2402 gene, was measured using C1R-A24 cells expressing the HLA-A*2402 gene (cells prepared by Professor Masafumi Takiguchi, Kumamoto University being supplied with permission by Assistant Professor Masaki Yasukawa, Ehime University).
(§2) C1R-A24 cells were first exposed to acidic conditions at a pH of 3.3 for 30 seconds, thus dissociating and removing a light chain β2m, which is associated with HLA class I molecules in common, and an endogenous peptide originally bound to the HLA-A2402 molecule. After neutralization, purified β2m was added to C1R-A24 cells, the obtained product was added to serial dilutions of a peptide, and incubated on ice for 4 hours. Staining was carried out using fluorescently labeled monoclonal antibody 17A12, which recognizes association (MHC-pep) of the three members, that is, HLA-A2402 molecule, the peptide, and β2m, which had reassociated during the incubation.
(§3) Subsequently, the MHC-pep count per C1R-A24 cell (proportional to the strength of fluorescence of the above-mentioned fluorescent antibody) was quantitatively measured using an FACScan fluorescence-activated cell sorter (Becton Dickinson Biosciences). A binding dissociation constant Kd value between the HLA-A24 molecule and the peptide was calculated from the average strength of fluorescence per cell by a published method (Udaka et al., Immunogenetics, 51, 816-828, 2000).

[1] = tested on: human HLA-A type molecule; experiment: Binding experiments summarised for HLA-A type molecules
Protocol: as §1, §2, §3
The ability of a peptide to bind to an HLA-A0201 molecule, which is a product of the HLA-A*0201 gene, was measured using strain JY cells expressing the HLA-A*0201 (obtained from ATCC (American Type Culture Collection)).
JY cells were first exposed to acidic conditions at a pH of 3.8 for 30 seconds, thus dissociating and removing a light chain β2m and an endogenous peptide, which were noncovalently associated with the HLA-A0201 molecule. After neutralization, a reassociation experiment was carried out. The above-mentioned JY cells and the purified β2m were added to stepped serial dilutions of peptide for which the binding ability was to be measured, and incubation was carried out on ice for 4 hours. HLA-A0201 molecules that had reassociated up to this point were stained using the associating type specific fluorescently-labeled monoclonal antibody BB7.2.
Subsequently, the amount of fluorescence per cell was measured using a flow cytometer and a dissociation constant Kd value was calculated by a published method (Udaka et al., Immunogenetics, 51, 816-828, 2000).
(§4) The ability of a peptide to bind to an HLA-A0206 molecule, which is a product of the HLA-A*0206 gene, was measured using RA2.6 cells (cell strain newly prepared in Kochi University), wherein cDNA of the HLA-A*0206 gene is expressed in RAMS cells, which are mouse peptide transporter TAP-deficient cells.
(§5) RA2.6 cells were first cultured overnight at 26° C., serial dilutions of peptide were added to HLA-A0206 molecules having no peptide bound thereto that were deposited on the cell surface, and binding was carried out at room temperature for 30 minutes.
(§6) Subsequently, culturing was carried out at 37° C. for 3.5 hours, empty HLA-A0206 molecules to which no peptide were bound was denatured, and the tertiary structure was lost.
(§7) The cells were stained by adding thereto fluorescently labeled monoclonal antibody 17A10 or 17A12, which specifically recognize the peptide-binding HLA-A0206 molecule, and incubating on ice for 20 minutes.
(§8) Subsequently, the amount of fluorescence per cell was measured using a flow cytometer, and a dissociation constant Kd value was calculated by a published method (Udaka et al., Immunogenetics, 51, 816-828, 2000).

HLA-A0206 molecule = biological target: T1, HLA-A0206 molecule (Homo sapiens, UniProt P04439, D140Y/D185E/D98H/E176V/E277Q/F33Y/G131W/G231S/I119V/I121R/I166T/I218V/L300P/L318F/N151K/N90K/P208A/P217A/Q86G/Q94H/R138H/R169H/T345S); experiment: Experiment of binding peptide to HLA-A0206 molecule (RA2.6 cells, flow cytometry)
T1 construct: expressed in transfected cells; host or cells: RA2.6 cells (RAMS mouse TAP-deficient cells expressing HLA-A*0206 cDNA)
Protocol: as §4, §5, §6, §7, §8

HLA-A0201 molecule = HLA-A0201 molecule (Homo sapiens, UniProt P04439, D140Y/D185E/D98H/E176V/E277Q/G131W/G231S/I119V/I121R/I166T/I218V/L300P/L318F/N151K/N90K/P208A/P217A/Q86G/Q94H/R138H/R169H/T345S); experiment: Experiment of binding peptide to HLA-A0201 molecule (JY cells, flow cytometry); conditions: expressed as -log Kd value
[2] = binding to HLA-A2402 molecule, C1R-A24 cells, read-out: BINDING EXPERIMENT DATA (converted)
[3] = binding to HLA-A0206 molecule, RA2.6 cells, read-out: BINDING EXPERIMENT DATA (converted)

Compound | Kd (HLA-A2402 molecule; [2]) | binding to a human HLA-A type molecule ([1]; result in words) | also measured
WVLTAAHCI [compound 20] | – | – | Kd (HLA-A0206 molecule): 1130 nM
FHPEDTGQV [compound 13] | – | – | Kd (HLA-A0201 molecule): 2960 nM
CC(C)C[C@H](N)C(=O)N[C@H](C(=O)N[C@@H](C)C(=O)N[C@@H](CO)C(=O)N[C@@H](CCCNC(=N)N)C(=O)NCC(=O)N[C@@H](CCCNC(=N)N)C(=O)N[C@@H](C)C(=O)N[C@H](C(=O)O)C(C)C)C(C)C [compound 22] | – | – | Kd (HLA-A0206 molecule; [3]): 5580 nM
WVPVVFLTL [compound 24] | – | – | Kd (HLA-A0206 molecule; [3]): 182 nM
CC(C)C[C@H](NC(=O)[C@@H](NC(=O)CN)C(C)C)C(=O)N[C@H](C(=O)N[C@@H](Cc1c[nH]cn1)C(=O)N1CCC[C@H]1C(=O)N[C@@H](CCC(N)=O)C(=O)N[C@@H](Cc1c[nH]c2ccccc12)C(=O)N[C@H](C(=O)O)C(C)C)C(C)C [compound 19] | – | – | Kd (HLA-A0206 molecule; [3]): 525 nM
DLPTQEPAL [compound 27] | – | – | Kd (HLA-A0206 molecule; [3]): 5440 nM
GVLQGITSW [compound 8] | 4200 nM | experimentally confirmed to bind | –
WVLTAAHCI [compound 12] | – | – | Kd (HLA-A2402 molecule): 23200 nM; binding to a human HLA-A type molecule [1]: experimentally confirmed to bind
ILLGRHSLF [compound 3] | 33.5 nM | experimentally confirmed to bind | –

More lines, main results first:

Kd (HLA-A2402 molecule; [2]) | binding to a human HLA-A type molecule ([1]; result in words) | Compound | also measured
50.9 nM | experimentally confirmed to bind | WVPVVFLTL [compound 2] | –
5870 nM | experimentally confirmed to bind | DLPTQEPAL [compound 4] | –
223 nM | experimentally confirmed to bind | VHPQKVTKF [compound 7] | –
47.8 nM | experimentally confirmed to bind | QVFQVSHSF [compound 5] | –
458 nM | experimentally confirmed to bind | CC(C)C[C@H](NC(=O)[C@@H](NC(=O)[C@H](Cc1c[nH]c2ccccc12)NC(=O)[C@H](CCC(N)=O)NC(=O)[C@@H]1CCCN1C(=O)[C@H](Cc1c[nH]cn1)NC(=O)[C@@H](NC(=O)[C@H](CC(C)C)NC(=O)[C@@H](N)C(C)C)C(C)C)C(C)C)C(=O)O [compound 9] | –
62 nM | experimentally confirmed to bind | ILSRIVGGW [compound 6] | –
